The text below walks through data of patent US20040175447A1, “Feeds and fertilizers containing pentacyclic triterpenes” (The Nisshin OilliO, Ltd., priority 2001, published 2004).

For the experiment, the system named is B-16 melanoma cells. In words: Evaluation of melanin production-inhibitory effect (cell-whitening degree of cultured B-16 melanoma cells). For Melanin production-inhibitory effect (cell-whitening degree): key: ++: The whitening degree is higher than that observed for the positive control; +: The whitening degree is almost identical to that observed for the positive control; ±: The whitening degree is not higher than that observed for the positive control, but higher than that observed for the control; −: The whitening degree is almost identical to that observed for the control. The class given is cell-based. The settings on record: for Melanin production-inhibitory effect (cell-whitening degree): positive control 450 ppm vitamin C-magnesium phosphate; for melanogenesis-inhibitory function relative to that observed when 450 ppm of vitamin C-magnesium phosphate (standard) is added: from Table 1. The procedure:
In the present invention, the melanogenesis-inhibitory effect is evaluated and compared on the basis of the results of tests for examining the melanogenesis-inhibitory function in which B-16 melanoma cells are cultivated, as a primary evaluation. Moreover, a feed is, for instance, practically prepared and its effectiveness in the melanogenesis-inhibition is evaluated as a secondary evaluation. It has been confirmed that the pentacyclic triterpenes whose strong melanogenesis-inhibitory function is confirmed by the cell culture test as the primary evaluation also show an excellent effect in the secondary evaluation test. In addition, it has also been confirmed that there is a correlation between the results obtained in these two evaluation methods.
If the culture system includes a melanogenesis-inhibitory substance during the proliferation thereof, the blackening of the cells is suppressed while the whitening thereof is relatively promoted. Accordingly, the melanogenesis-inhibitory function of the substance can be evaluated by comparing the degree of whitening observed for the substance with the degree of blackening observed for a control. The evaluated results of the melanogenesis-inhibitory effect obtained in this cell culture system clearly indicate that the pentacyclic triterpenes and/or physiologically acceptable salts thereof or derivatives thereof have quite strong melanogenesis-inhibitory effects. For instance, when comparing the effects thereof with that achieved by vitamin C-magnesium phosphate, the melanogenesis-inhibitory effect is about 100 to 200 times, for maslinic acid, about 100 to 200 times, for maslinic acid salts, about 10 to 100 times, for erythrodiol, about 30 to 120 times, for uvaol, about 30 to 120 times, for betulinic acid, about 10 to 100 times, for betulin, about 100 to 200 times, for ethyl maslinate, about 50 to 150 times, for acetylated maslinic acid, about 30 to 120 times, for triethylsilylated maslinic acid, about 50 to 150 times, for stearoyl derivative of ethyl maslinate, about 10 to 100 times, for acetylated erythrodiol, about 10 to 100 times, for acetylated uvaol, about 10 to 100 times, for ethyl betulinate, and about 5 to 50 times, for acetylated betulin, that observed for the vitamin C-magnesium phosphate.
A culture medium was dispensed to wells of a 6-well plate (2 mL/well each), followed by inoculation of a desired amount of B-16 melanoma cells on each well, allowing the wells to stand at 37° C. and 5% CO2 to thus cultivate the cells. On the day subsequent thereto, a candidate sample (pentacyclic triterpenes) solution prepared was added to and mixed with the culture medium containing the cells and the cultivation was continued. The culture medium was replaced with fresh one on the 5th day from the initiation of the cultivation and the prepared sample solution was again added to the wells. On the next day, the culture medium was removed to recover the cells, followed by the washing of these cells with PBS (phosphate buffered physiological saline) and the subsequent evaluation of the cell-whitening degree. In this respect, the melanogenesis-inhibitory function was evaluated by comparing the cell-whitening degree thus obtained with that observed when using 450 ppm of vitamin C-magnesium phosphate as a known whitening agent (a positive control) and that obtained when any candidate sample was not used (control), according to the following evaluation criteria.
The evaluation criteria for the cell-whitening degree are as follows:
Regarding the results listed in Table 1, the whitening degree observed when adding 450 ppm of vitamin C-magnesium phosphate is selected as a standard.

Regarding `C=C(C)[C@@H]1CC[C@]2(CO)CC[C@]3(C)[C@H](CC[C@@H]4[C@@]5(C)CC[C@H](O)C(C)(C)[C@@H]5CC[C@]43C)[C@@H]12` [Betulin], the “melanogenesis-inhibitory function relative to that observed when 450 ppm of vitamin C-magnesium phosphate (standard) is added” value was “about 20 times”. The “Melanin production-inhibitory effect (cell-whitening degree)” value (“Melanin production-inhibitory effect” below) (2 ppm) is “−”. The “Melanin production-inhibitory effect” value (6 ppm) is “±”. Moreover, under “10 ppm”, the “Melanin production-inhibitory effect” value was “±”. Moreover, the “Melanin production-inhibitory effect” value (25 ppm) is listed as “+”. For the setting “50 ppm”, the “Melanin production-inhibitory effect” value is on record as “+”.
As for `C=C(C)[C@@H]1CC[C@]2(C(=O)O)CC[C@]3(C)[C@H](CC[C@@H]4[C@@]5(C)CC[C@H](O)C(C)(C)[C@@H]5CC[C@]43C)[C@@H]12` [Betulinic acid], the “melanogenesis-inhibitory function relative to that observed when 450 ppm of vitamin C-magnesium phosphate (standard) is added” value is on record as “about 40 times”. Also, the “Melanin production-inhibitory effect” value (2 ppm) was “−”. For the same compound, under “6 ppm”, the “Melanin production-inhibitory effect” value is “±”. Moreover, the “Melanin production-inhibitory effect” value (10 ppm) is reported as “+”. Moreover, the “Melanin production-inhibitory effect” value (25 ppm) is listed as “+”. Further, the “Melanin production-inhibitory effect” value (50 ppm) is “+”.
For the compound `CCOC(=O)[C@]12CCC(C)(C)C[C@H]1C1=CC[C@@H]3[C@@]4(C)C[C@@H](O)[C@H](O)C(C)(C)[C@@H]4CC[C@@]3(C)[C@]1(C)CC2` [Compound of Synthesis 1, Ethyl Ester of Maslinic Acid], the “melanogenesis-inhibitory function relative to that observed when 450 ppm of vitamin C-magnesium phosphate (standard) is added” value is recorded as “about 110 times”. Further, for the setting “2 ppm”, the “Melanin production-inhibitory effect” value was “±”. The “Melanin production-inhibitory effect” value (4 ppm) is on record as “+”. Also, the “Melanin production-inhibitory effect” value (6 ppm) is reported as “++”. The “Melanin production-inhibitory effect” value (8 ppm) is “++”. In addition, where the note is “10 ppm”, the “Melanin production-inhibitory effect” value is on record as “++”.
`CC(=O)O[C@@H]1C[C@]2(C)[C@H]3CC=C4[C@@H]5CC(C)(C)CC[C@]5(C(=O)O)CC[C@@]4(C)[C@]3(C)CC[C@H]2C(C)(C)[C@H]1OC(C)=O` [Compound of Synthesis 2, 2,3-O-Di-Acetyl-Maslinic Acid]: the “melanogenesis-inhibitory function relative to that observed when 450 ppm of vitamin C-magnesium phosphate (standard) is added” value is on record as “about 75 times”. Besides, for the setting “2 ppm”, the “Melanin production-inhibitory effect” value is “±”. The “Melanin production-inhibitory effect” value (4 ppm) is on record as “±”. The “Melanin production-inhibitory effect” value (6 ppm) was “+”. Also, the “Melanin production-inhibitory effect” value (8 ppm) was “++”. In addition, the “Melanin production-inhibitory effect” value (10 ppm) is reported as “++”. The “Melanin production-inhibitory effect” value (15 ppm) is given as “++”.
On to `CC[Si](CC)(CC)OC(=O)[C@]12CCC(C)(C)C[C@H]1C1=CC[C@@H]3[C@@]4(C)C[C@@H](O[Si](CC)(CC)CC)[C@H](O[Si](CC)(CC)CC)C(C)(C)[C@@H]4CC[C@@]3(C)[C@]1(C)CC2` [Compound of Synthesis 3, Triethylsilyl Ester of 2,3-O-Di-Triethylsilyl-Maslinic Acid], for which the “melanogenesis-inhibitory function relative to that observed when 450 ppm of vitamin C-magnesium phosphate (standard) is added” value is “about 40 times”. The “Melanin production-inhibitory effect” value (2 ppm) is “−”. Moreover, where the note is “6 ppm”, the “Melanin production-inhibitory effect” value is “±”. For the same compound, the “Melanin production-inhibitory effect” value (10 ppm) is recorded as “+”. The “Melanin production-inhibitory effect” value (25 ppm) is reported as “+”. The “Melanin production-inhibitory effect” value (50 ppm) is given as “+”.
